System: Human prostate cancer cell lines (PC-3 cells)
Experiment: Measurement of cell death-inducing activity (Test Example 1)
Assay type: cell-based
Details: PC-3, 48 h, 48 hours after addition, tested at 10, 1, 0.1, 0.025 and 0.00625 μmol/L, qualitative evaluation of 10 fields, read-out: Concentration showing the cell death-inducing activity (cell death-inducing rate not less than 40%)
Outline: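 Compound treatment lasted 48 h at 10 to 0.00625 μmol/L (five levels, DMSO as control) on PC-3 cells pre-cultured 48 h at 37 °C, 5% CO2 after seeding at 1×10^5 cells/well. A cell death-inducing rate of 40% or more counted as active.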

| SMILES | minimal effective concentration |
| --- | --- |
| COc1ccc(/C=N/NC(=O)c2sc(-c3nccc4ccccc34)nc2C)cc1O [Example 23-27] | 10 µM |
| COc1ccc(/C=N/NC(=O)c2sc(-c3ccccn3)nc2C)cc1O [Example 23-28] | 1 µM |
| CCCCCCc1nc(-c2ccc(Cl)cc2)sc1C(=O)N/N=C/c1ccc(OC)c(O)c1 [Example 23-30] | 10 µM |
| Cc1ccc(/C=N/NC(=O)c2sc(-c3ccc(Cl)cc3)nc2C)cc1O [Example 23-35] | 10 µM |
| COc1ccc(/C=N/NC(=O)c2sc(-c3csc4ccccc34)nc2C)cc1O [Example 23-38] | 1 µM |
| COc1ccc(/C=N/NC(=O)c2sc(-c3ccncc3)nc2C)cc1O [Example 23-40] | 10 µM |
| COc1ccc(/C=N/NC(=O)c2sc(-c3cccnc3)nc2C)cc1O [Example 23-41] | 1 µM |
| COc1ccc(/C=N/NC(=O)c2sc(-c3ccc(Cl)cc3)nc2C)cc1OC [Example 23-42] | 10 µM |
| Cc1cccc(-c2nc(C)c(C(=O)N/N=C/c3ccc4c(c3)OCO4)s2)c1C [Example 23-43] | 1 µM |
| COc1ccc(/C=N/NC(=O)c2sc(-c3ccc(C)cc3C)nc2C)cc1O [Example 23-44] | 0.1 µM |
| Cc1ccc(-c2nc(C)c(C(=O)N/N=C/c3ccc(O)c(C)c3)s2)c(C)c1 [Example 23-45] | 1 µM |
| COc1ccc(/C=N/NC(=O)c2sc(-c3ccc(Cl)cc3C)nc2C)cc1O [Example 23-46] | 0.025 µM |
| Cc1cc(/C=N/NC(=O)c2sc(-c3ccc(Cl)cc3C)nc2C)ccc1O [Example 23-47] | 1 µM |
| CCCOc1ccccc1-c1nc(C)c(C(=O)N/N=C/c2ccc(OC)c(O)c2)s1 [Example 23-48] | 0.1 µM |
| COc1ccc(/C=N/NC(=O)c2cnc(-c3ccccc3C)s2)cc1O [Example 23-50] | 0.1 µM |
| Cc1cc(/C=N/NC(=O)c2cnc(-c3ccccc3C)s2)ccc1O [Example 23-51] | 10 µM |
| Cc1ccccc1-c1ncc(C(=O)N/N=C/c2ccc3c(c2)OCO3)s1 [Example 23-52] | 1 µM |
| COc1ccc(/C=N/NC(=O)c2sc(-c3ccccc3)nc2C)cc1O [Example 23-53] | 0.1 µM |
| CCCOc1ccccc1-c1nc(C)c(C(=O)N/N=C/c2cc(C)c(O)c(C)c2)s1 [Example 23-55] | 1 µM |
| COc1ccc(/C=N/NC(=O)c2sc(-c3ccccc3O)nc2C)cc1O [Example 23-57] | 10 µM |
| Cc1nc(-c2ccc(Cl)cc2)sc1C(=O)N/N=C/c1ccccc1O [Example 23-59] | 10 µM |
| COc1cccc(/C=N/NC(=O)c2sc(-c3ccc(Cl)cc3)nc2C)c1O [Example 23-60] | 10 µM |
| COc1ccc(/C=N/NC(=O)c2sc(-c3ccc(Cl)cc3)nc2C)c(Cl)c1O [Example 23-61] | 1 µM |
| COc1ccc(/C=N/NC(=O)c2sc(-c3ccccc3F)nc2C)cc1 [Example 23-65] | 1 µM |
| COc1ccc(/C=N/NC(=O)c2sc(-c3cccc(F)c3)nc2C)cc1 [Example 23-66] | 1 µM |

| SMILES | minimal effective concentration |
| --- | --- |
| COc1ccc(/C=N/NC(=O)c2sc(-c3ccc(F)cc3)nc2C)cc1 [Example 23-67] | 1 µM |
| COc1ccc(/C=N/NC(=O)c2sc(-c3ccccc3OC)nc2C)cc1F [Example 23-68] | 0.1 µM |
| COc1ccccc1-c1nc(C)c(C(=O)N/N=C/c2ccc(SC)cc2)s1 [Example 23-70] | 0.1 µM |
| COc1ccc(/C=N/NC(=O)c2sc(-c3ccccc3F)nc2C)cc1O [Example 23-71] | 1 µM |
| COc1ccc(/C=N/NC(=O)c2sc(-c3cccc(F)c3)nc2C)cc1O [Example 23-72] | 1 µM |
| COc1ccc(/C=N/NC(=O)c2sc(-c3ccc(F)cc3)nc2C)cc1O [Example 23-73] | 0.1 µM |
| COc1ccc(/C=N/NC(=O)c2sc(-c3ccc(Cl)cc3OC)nc2C)cc1O [Example 23-74] | 0.1 µM |
| COc1cc(Cl)ccc1-c1nc(C)c(C(=O)N/N=C/c2ccc(O)cc2)s1 [Example 23-75] | 1 µM |
| COc1cc(Cl)ccc1-c1nc(C)c(C(=O)N/N=C/c2ccc(O)c(C)c2)s1 [Example 23-76] | 1 µM |
| COc1cc(Cl)ccc1-c1nc(C)c(C(=O)N/N=C/c2ccc(O)c(O)c2)s1 [Example 23-77] | 1 µM |
| COc1ccc(/C=N/NC(=O)c2sc(-c3ccc(Cl)cc3OC)nc2C)cc1OC [Example 23-78] | 0.1 µM |
| COc1ccc(/C=N/NC(=O)c2sc(-c3ccc(Cl)cc3OC)nc2C)cc1 [Example 23-79] | 0.1 µM |
| COc1cccc(/C=N/NC(=O)c2sc(-c3ccc(Cl)cc3OC)nc2C)c1 [Example 23-80] | 1 µM |
| COc1cc(/C=N/NC(=O)c2sc(-c3ccc(Cl)cc3OC)nc2C)ccc1O [Example 23-81] | 10 µM |
| COc1ccc(/C=N/NC(=O)c2sc(-c3ccc(Cl)cc3OC)nc2C)cc1C [Example 23-82] | 0.1 µM |
| COc1cc(Cl)ccc1-c1nc(C)c(C(=O)N/N=C/c2ccc3c(c2)CCO3)s1 [Example 23-83] | 0.1 µM |
| COc1cc(Cl)ccc1-c1nc(C)c(C(=O)N/N=C/c2cc(C)c(O)c(C)c2)s1 [Example 23-84] | 0.1 µM |
| COc1ccc(/C=N/NC(=O)c2sc(-c3ccc(Cl)cc3OC)nc2C)cn1 [Example 23-85] | 1 µM |
| COc1ccc(/C=N/NC(=O)c2sc(-c3ccccc3OC)nc2C)c(O)c1 [Example 23-86] | 10 µM |
| COc1ccccc1-c1nc(C)c(C(=O)N/N=C/c2ccc(N(C)C)cc2)s1 [Example 23-88] | 0.1 µM |
| COc1ccccc1-c1nc(C)c(C(=O)N/N=C/c2ccc(N3CCOCC3)cc2)s1 [Example 23-89] | 1 µM |
| COc1ccccc1-c1nc(C)c(C(=O)N/N=C/c2ccc3[nH]ccc3c2)s1 [Example 23-90] | 0.1 µM |
| COc1ccccc1-c1nc(C)c(C(=O)N/N=C/c2ccc3cc[nH]c3c2)s1 [Example 23-91] | 0.1 µM |
| COc1ccccc1-c1nc(C)c(C(=O)N/N=C/c2ccc3c(ccn3C)c2)s1 [Example 23-92] | 0.025 µM |
| COc1ccccc1-c1nc(C)c(C(=O)N/N=C/c2ccc3ccn(C)c3c2)s1 [Example 23-93] | 0.1 µM |

| SMILES | minimal effective concentration |
| --- | --- |
| COc1cc(Cl)ccc1-c1nc(C)c(C(=O)N/N=C/c2cccc3[nH]ccc23)s1 [Example 23-94] | 1 µM |
| COc1cc(Cl)ccc1-c1nc(C)c(C(=O)N/N=C/c2cccc3c2ccn3C)s1 [Example 23-95] | 0.1 µM |
| COc1ccccc1-c1nc(C)c(C(=O)N/N=C/c2ccc3ncccc3c2)s1 [Example 23-97] | 0.1 µM |
| COc1ccccc1-c1nc(C)c(C(=O)N/N=C/c2ccc3c(c2)OCCN3C)s1 [Example 23-98] | 0.1 µM |
| CCc1nc(-c2ccc(Cl)cc2)sc1C(=O)N/N=C/c1ccc(OC)c(O)c1 [Example 23-100] | 1 µM |
| COc1ccc(/C=N/NC(=O)c2sc(-c3ccc(Cl)cc3)nc2C2CC2)cc1O [Example 23-101] | 10 µM |
| CCCc1nc(-c2ccc(Cl)cc2)sc1C(=O)N/N=C/c1ccc(OC)c(O)c1 [Example 23-102] | 10 µM |
| COc1ccc(-c2nc(C)c(C(=O)N/N=C/c3ccc(OC)c(O)c3)s2)cc1 [Example 23-103] | 10 µM |
| COc1ccc(-c2nc(C)c(C(=O)N/N=C/c3cc(C)c(O)c(C)c3)s2)cc1 [Example 23-104] | 1 µM |
| CCCCCCOc1ccc(/C=N/NC(=O)c2sc(-c3ccc(Cl)cc3)nc2C)cc1O [Example 23-105] | 10 µM |
| CCc1nc(-c2ccc(Cl)cc2)sc1C(=O)N/N=C/c1cc(C)c(O)c(C)c1 [Example 23-106] | 1 µM |
| CCCc1nc(-c2ccc(Cl)cc2)sc1C(=O)N/N=C/c1cc(C)c(O)c(C)c1 [Example 23-107] | 10 µM |
| CCc1nc(-c2ccc(Cl)cc2)sc1C(=O)N/N=C/c1ccc(O)c(C)c1 [Example 23-108] | 10 µM |
| Cc1nc(-c2ccc(Cl)cc2)sc1C(=O)N/N=C/c1ccc(O)c2ccccc12 [Example 23-110] | 1 µM |
| COc1ccc(-c2nc(C)c(C(=O)N/N=C/c3ccc(O)c4ccccc34)s2)cc1 [Example 23-113] | 10 µM |
| Cc1nc(-c2ccc(Cl)cc2)sc1C(=O)N/N=C/c1ccc(OC(F)F)c(O)c1 [Example 23-115] | 1 µM |
| Cc1nc(-c2ccccc2Cl)sc1C(=O)N/N=C/c1ccc(OC(F)F)c(O)c1 [Example 23-116] | 1 µM |
| Cc1cccc(-c2nc(C)c(C(=O)N/N=C/c3ccc(OC(F)F)c(O)c3)s2)c1C [Example 23-117] | 1 µM |
| Cc1nc(-c2ccccc2C(F)(F)F)sc1C(=O)N/N=C/c1ccc(OC(F)F)c(O)c1 [Example 23-118] | 1 µM |
| Cc1cccnc1-c1nc(C)c(C(=O)N/N=C/c2cc(C)c(O)c(C)c2)s1 [Example 23-119] | 10 µM |
| COc1ccccc1-c1nc(C)c(C(=O)N/N=C/c2cc(C)c(O)c(C)c2)s1 [Example 23-120] | 0.1 µM |
| Cc1ccc(-c2nc(C)c(C(=O)N/N=C/c3cc(C)c(O)c(C)c3)s2)c(C)c1 [Example 23-122] | 0.1 µM |
| Cc1cc(Cl)ccc1-c1nc(C)c(C(=O)N/N=C/c2cc(C)c(O)c(C)c2)s1 [Example 23-123] | 0.1 µM |
| Cc1ccccc1-c1ncc(C(=O)N/N=C/c2cc(C)c(O)c(C)c2)s1 [Example 23-124] | 0.1 µM |

From patent publication US9200008B2 (ASKA PHARMACEUTICAL CO., LTD., priority 2010, dated 2015)
